Data: ChEMBL document CHEMBL4665914, “Identification of BRaf-Sparing Amino-Thienopyrimidines with Potent IRE1α Inhibitory Activity” (ACS Med Chem Lett, 2020)
pIC50, pKi: −log10 of the molar value.

Columns and labels:
[1] = target: T1, Serine/threonine-protein kinase/endoribonuclease IRE1 (Homo sapiens, UniProt O75460); experiment: Inhibition of IRE1alpha (unknown origin) assessed as XBP-1 slicing luciferase activity incubated for 1 hr followed by stimulation with thapsigargin measured after 5 hrs by luciferase reporter gene assay
T1 sequence (O75460 whole entry, the tested form may be a part): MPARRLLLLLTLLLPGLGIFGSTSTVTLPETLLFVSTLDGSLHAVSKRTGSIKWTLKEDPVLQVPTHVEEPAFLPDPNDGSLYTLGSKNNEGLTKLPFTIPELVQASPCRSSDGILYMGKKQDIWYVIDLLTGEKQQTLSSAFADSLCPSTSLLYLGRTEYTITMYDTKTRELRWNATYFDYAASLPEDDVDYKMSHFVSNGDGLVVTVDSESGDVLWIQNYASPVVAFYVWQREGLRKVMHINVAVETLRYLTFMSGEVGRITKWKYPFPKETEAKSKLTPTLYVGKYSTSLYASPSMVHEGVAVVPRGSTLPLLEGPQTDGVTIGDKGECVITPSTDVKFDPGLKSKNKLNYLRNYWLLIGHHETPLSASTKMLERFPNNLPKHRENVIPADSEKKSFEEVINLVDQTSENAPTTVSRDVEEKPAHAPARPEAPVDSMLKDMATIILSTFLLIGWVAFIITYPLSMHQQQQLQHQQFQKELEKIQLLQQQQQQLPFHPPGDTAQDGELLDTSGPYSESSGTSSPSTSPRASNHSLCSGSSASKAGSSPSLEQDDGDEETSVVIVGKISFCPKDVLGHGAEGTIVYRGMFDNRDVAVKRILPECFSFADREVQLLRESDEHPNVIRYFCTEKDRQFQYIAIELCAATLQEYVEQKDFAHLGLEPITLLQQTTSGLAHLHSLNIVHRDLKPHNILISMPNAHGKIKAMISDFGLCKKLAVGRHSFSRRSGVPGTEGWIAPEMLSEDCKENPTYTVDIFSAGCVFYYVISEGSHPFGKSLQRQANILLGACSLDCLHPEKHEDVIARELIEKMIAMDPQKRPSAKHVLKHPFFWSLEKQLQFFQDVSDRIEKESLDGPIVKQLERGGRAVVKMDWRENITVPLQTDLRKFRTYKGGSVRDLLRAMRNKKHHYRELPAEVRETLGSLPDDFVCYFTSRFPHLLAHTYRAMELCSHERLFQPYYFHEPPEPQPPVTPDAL

[2] = target: T1, Serine/threonine-protein kinase/endoribonuclease IRE1; experiment: Competitive inhibition of IRE1alpha LKR domain (Q470 to L997 residues) (unknown origin) expressed in Sf9 insect cells using mini-XBP-1 stem-loop RNA as substrate and measured every 2 mins for 50 mins by FRET assay
[3] = target: Serine/threonine-protein kinase B-raf (Homo sapiens, UniProt P15056, V600E)
Sequence of Serine/threonine-protein kinase B-raf (P15056 2-766 V600E limits assumed): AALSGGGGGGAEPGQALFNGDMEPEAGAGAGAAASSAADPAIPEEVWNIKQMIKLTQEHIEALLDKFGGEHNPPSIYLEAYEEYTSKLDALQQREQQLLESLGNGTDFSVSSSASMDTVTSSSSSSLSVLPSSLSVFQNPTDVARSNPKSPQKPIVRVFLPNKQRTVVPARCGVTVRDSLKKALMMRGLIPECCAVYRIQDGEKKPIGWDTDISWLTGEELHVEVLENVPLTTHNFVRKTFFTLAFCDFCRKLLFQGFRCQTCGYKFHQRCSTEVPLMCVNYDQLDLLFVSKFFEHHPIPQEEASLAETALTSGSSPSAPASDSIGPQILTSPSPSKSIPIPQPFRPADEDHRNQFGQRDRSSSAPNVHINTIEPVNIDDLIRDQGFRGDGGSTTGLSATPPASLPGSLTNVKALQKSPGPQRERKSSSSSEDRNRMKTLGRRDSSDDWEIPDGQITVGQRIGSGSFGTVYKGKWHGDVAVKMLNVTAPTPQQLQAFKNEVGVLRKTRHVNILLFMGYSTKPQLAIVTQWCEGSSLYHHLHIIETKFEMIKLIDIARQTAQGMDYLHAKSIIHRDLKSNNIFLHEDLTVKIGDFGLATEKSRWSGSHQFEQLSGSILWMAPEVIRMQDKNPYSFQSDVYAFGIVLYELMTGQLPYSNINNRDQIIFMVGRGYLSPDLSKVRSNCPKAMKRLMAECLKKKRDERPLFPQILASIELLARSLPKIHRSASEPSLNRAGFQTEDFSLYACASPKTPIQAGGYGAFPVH

hERG (KCNH2) [4] = target: T2, hERG (KCNH2) (Homo sapiens, UniProt Q12809); experiment: Inhibition of human ERG at 10 uM relative to control
T2 sequence (Q12809 whole entry): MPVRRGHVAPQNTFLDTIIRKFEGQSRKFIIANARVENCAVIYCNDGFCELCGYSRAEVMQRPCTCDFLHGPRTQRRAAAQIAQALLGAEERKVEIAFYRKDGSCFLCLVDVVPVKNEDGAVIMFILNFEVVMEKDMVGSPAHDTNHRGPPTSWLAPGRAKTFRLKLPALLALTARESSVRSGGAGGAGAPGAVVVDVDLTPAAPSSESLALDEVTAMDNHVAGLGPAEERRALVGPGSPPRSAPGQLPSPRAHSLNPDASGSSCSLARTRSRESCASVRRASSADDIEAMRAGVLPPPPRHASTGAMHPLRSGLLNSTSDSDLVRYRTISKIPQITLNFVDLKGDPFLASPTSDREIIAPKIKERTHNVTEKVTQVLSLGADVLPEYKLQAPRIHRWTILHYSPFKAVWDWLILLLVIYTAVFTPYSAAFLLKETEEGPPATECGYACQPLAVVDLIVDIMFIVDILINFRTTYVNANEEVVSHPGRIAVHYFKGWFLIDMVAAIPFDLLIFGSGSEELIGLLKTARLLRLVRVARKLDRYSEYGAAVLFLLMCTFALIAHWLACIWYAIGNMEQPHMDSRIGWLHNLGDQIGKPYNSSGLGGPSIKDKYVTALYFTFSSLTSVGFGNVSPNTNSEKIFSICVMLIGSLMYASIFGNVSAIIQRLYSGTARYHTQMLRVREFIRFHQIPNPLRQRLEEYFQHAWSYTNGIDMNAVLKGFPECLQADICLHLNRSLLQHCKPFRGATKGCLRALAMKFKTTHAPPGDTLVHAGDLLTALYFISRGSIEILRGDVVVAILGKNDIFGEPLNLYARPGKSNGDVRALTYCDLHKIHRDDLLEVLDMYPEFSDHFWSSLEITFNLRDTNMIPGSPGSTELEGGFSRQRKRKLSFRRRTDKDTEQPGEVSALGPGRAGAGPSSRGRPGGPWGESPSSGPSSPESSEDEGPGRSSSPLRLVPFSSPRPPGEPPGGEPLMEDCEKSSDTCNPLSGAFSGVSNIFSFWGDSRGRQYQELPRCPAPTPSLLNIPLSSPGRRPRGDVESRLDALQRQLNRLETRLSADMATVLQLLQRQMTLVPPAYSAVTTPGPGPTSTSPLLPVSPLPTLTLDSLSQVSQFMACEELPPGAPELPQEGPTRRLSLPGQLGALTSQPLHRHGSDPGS

hERG (KCNH2) [5] = target: T2, hERG (KCNH2); experiment: Inhibition of human ERG at 1 uM relative to control

Structure (SMILES)	pIC50 [1]	pIC50 [2]	pKi [3]	inhibition at 10 µM (hERG (KCNH2) [4])	inhibition at 1 µM (hERG (KCNH2) [5])
Cc1cc(NS(=O)(=O)c2ccccc2Cl)c2ccccc2c1Oc1ncccc1-c1ccnc(N[C@H]2CC[C@H](N)CC2)n1	7.24	8.38	–	–	–
Cc1cc(C(=O)Nc2c(Cl)ccc(NS(=O)(=O)c3cc(F)ccc3F)c2F)c2ncnc(NCCN)c2c1	4.51	6.04	8.28	–	–
Nc1ncnc2c(C(=O)Nc3c(Cl)ccc(NS(=O)(=O)c4cc(F)ccc4F)c3F)csc12	5.28	7.17	≥ 10.10	–	–
Cc1cc(C(=O)Nc2c(Cl)ccc(NS(=O)(=O)c3cc(F)ccc3F)c2F)c2ncnc(N[C@@H]3CCCNC3)c2c1	4.72	5.46	7.15	–	–
Cc1nn(C)cc1-c1cc(C(=O)Nc2c(Cl)ccc(NS(=O)(=O)c3ccccc3F)c2F)c2ncnc(N)c2c1	7.36	7.40	≥ 10.10	–	–
Cc1cc(C(=O)Nc2c(Cl)ccc(NS(=O)(=O)c3cc(F)ccc3F)c2F)c2ncnc(N[C@H]3CC[C@H](N)CC3)c2c1	4.72	6.15	6.47	–	–
Nc1ncnc2c(C(=O)Nc3c(Cl)ccc(NS(=O)(=O)c4cc(F)ccc4F)c3F)cc(-c3cccnc3)cc12	5.31	7.33	≥ 10.10	–	–
Cc1cc(C(=O)Nc2c(Cl)ccc(NS(=O)(=O)c3cc(F)ccc3F)c2F)c2ncnc(N)c2c1	5.96	7.51	≥ 10.10	–	–
Cc1nn(C)cc1-c1cc(C(=O)Nc2c(Cl)ccc(NS(=O)(=O)c3ccccc3Cl)c2F)c2ncnc(N)c2c1	7.32	7.19	9.60	–	–
Cc1cc(C(=O)Nc2c(Cl)ccc(NS(=O)(=O)c3cc(F)ccc3F)c2F)c2ncnc(N[C@H]3CCCNC3)c2c1	5.00	6.17	–	–	–
N[C@H]1CC[C@H](Nc2ncnc3c(C(=O)Nc4c(Cl)ccc(NS(=O)(=O)Cc5ccccc5)c4F)csc23)CC1	6.41	7.52	7.26	–	–
Nc1ncnc2c(C(=O)Nc3c(Cl)ccc(NS(=O)(=O)N4CCCC4)c3F)cccc12	5.25	6.70	8.64	–	–
N[C@H]1CC[C@H](Nc2ncnc3c(C(=O)Nc4c(Cl)ccc(NS(=O)(=O)c5ccccc5Cl)c4F)csc23)CC1	6.92	7.66	–	6.4%	1.1%
N[C@H]1CC[C@H](Nc2ncnc3c(C(=O)Nc4c(Cl)ccc(NS(=O)(=O)c5cc(F)ccc5F)c4F)csc23)CC1	6.49	7.62	8.85	–	–
